Assay results from PubChem BioAssay (NCI).
Where “and” joins values, the source holds several entries; their conditions need not be identical. Equal values may be shown once.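 Interpolation was linear, between the two tested concentrations surrounding the appropriate level; five concentrations were tested over 48 hours in 96-well plates. The concentration for 50% growth inhibition is given as GI50. TGI: concentration producing complete growth inhibition.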

Legend:
Test in all cases: growth of human tumour cells (NCI), 48 h
K-562 leukemia = system: K-562 leukemia
OVCAR-5 ovarian = system: OVCAR-5 ovarian
OVCAR-8 ovarian = system: OVCAR-8 ovarian
NCI-H23 lung = system: NCI-H23 lung
SW-620 colon = system: SW-620 colon
COLO 205 colon = system: COLO 205 colon
SF-539 CNS = system: SF-539 CNS
UACC-62 melanoma = system: UACC-62 melanoma
ACHN renal = system: ACHN renal
IGROV1 ovarian = system: IGROV1 ovarian

Compound | GI50 (K-562 leukemia) | TGI (K-562 leukemia) | GI50 (OVCAR-5 ovarian) | TGI (OVCAR-5 ovarian) | GI50 (OVCAR-8 ovarian) | TGI (OVCAR-8 ovarian) | GI50 (NCI-H23 lung) | TGI (NCI-H23 lung) | GI50 (SW-620 colon) | TGI (SW-620 colon) | GI50 (COLO 205 colon) | TGI (COLO 205 colon) | GI50 (SF-539 CNS) | TGI (SF-539 CNS) | GI50 (UACC-62 melanoma) | TGI (UACC-62 melanoma) | GI50 (ACHN renal) | TGI (ACHN renal) | GI50 (IGROV1 ovarian) | TGI (IGROV1 ovarian)
COc1ccc2c(c1)c(-c1ccc(-c3cn(C)c4ccc(OC)cc34)o1)cn2C | 2.86 µM | > 100 µM | 2.79 µM | 10.6 µM | 8.02 µM | > 100 µM | 17.3 µM | > 100 µM | 4.55 µM | 16.7 µM | 5.13 µM | 31.1 µM | 2.47 µM | 9.27 µM | 3.81 µM | 15.9 µM | 3.74 µM | 18.6 µM | 29.6 µM | > 100 µM
CC(=O)OC1(C#N)CC2OC1C1N=NN(C(=O)OC(C)(C)C)C21 (centres undefined) | – | > 100 µM | – | > 100 µM | – | > 100 µM | – | – | – | 23.1 µM | – | > 100 µM | – | > 100 µM | – | 42.2 µM | – | > 100 µM | – | > 31.6 µM
COc1ccc2c(c1OC)C(C=C(c1ccccc1)c1ccccc1)CN(C)C2 (centres undefined) | – | 25.1 µM | – | 61.6 µM | – | 67 µM | – | 63.1 µM | – | 26.2 µM | – | 28.5 µM | – | 56.6 µM | – | 40.2 µM | – | > 100 µM | – | 43.5 µM
CCN(CC)CCC(=O)N1C/C(=C/c2ccccc2)C(=O)/C(=C\c2ccccc2)C1 | – | 2.62 µM | – | 9.76 µM | – | 10.2 µM | – | 3.91 µM | – | 0.629 µM | – | 6.74 µM | – | 10.8 µM | – | 4.92 µM | – | 7.63 µM | – | 9.69 µM
CSC1SCC2C(=O)N(C)C(C(C)C)C(=O)OCC(NC(=O)c3cnc4ccccc4n3)C(=O)NC(C)C(=O)N(C)C1C(=O)N(C)C(C(C)C)C(=O)OCC(NC(=O)c1cnc3ccccc3n1)C(=O)NC(C)C(=O)N2C (centres undefined) | < 0.001 µM | – | < 0.001 µM | – | < 0.001 µM | – | < 0.001 µM | – | < 0.001 µM | – | < 0.001 µM | – | < 0.001 µM | – | < 0.001 µM | – | < 0.001 µM and 0.00186 µM and 0.0075 µM | – | < 0.001 µM | –
Nc1nc(CC2(O)CCCCC2)cc(-c2ccccc2)n1 | – | > 100 µM | – | 54.4 µM | – | > 84.7 µM | – | > 66.4 µM | – | 65 µM | – | 32.9 µM | – | > 100 µM | – | > 100 µM | – | > 100 µM | – | > 100 µM
COc1cc2c(cc1OC)-c1ncc3cc(OC)c(OC)c(OC)c3c1C2 | 3.89 µM | 48.6 µM | 57.3 µM | > 100 µM | 12 µM | 43.1 µM | – | – | 38.7 µM | > 100 µM | 27.7 µM | > 100 µM | 14 µM | 34 µM | 7.42 µM | 26.8 µM | 32 µM | > 100 µM | 33.5 µM | > 100 µM
CCC(=O)Nc1ncnc2ncn(C(=O)CC)c12 | – | > 100 µM | – | > 100 µM | – | > 100 µM | – | > 100 µM | – | > 100 µM | – | – | – | – | – | > 100 µM | – | > 100 µM | – | > 100 µM
C=C1C(=O)O[C@H]2[C@H]1CC/C(Cn1cc(-c3ccsc3)nn1)=C\CC[C@@]1(C)O[C@@H]21 | 2.51 µM | 11.7 µM | 2.29 µM | 7.13 µM | 2.96 µM | 11 µM | 1.82 µM | 4 µM | 1.32 µM | 2.68 µM | 1.45 µM | 3.24 µM | 1.8 µM | 3.47 µM | – | – | 1.32 µM | 2.69 µM | 1.92 µM | 5.03 µM
C/C(=N\NS(=O)(=O)c1c(C)cc(C)cc1C)c1ccc[n+]([O-])n1 | – | 30.2 µM | – | 56.1 µM | – | 79 µM | – | 34 µM | – | 22.3 µM | – | – | – | 27.7 µM | – | 31.5 µM | – | 29.9 µM | – | 99.2 µM
CCCCCCC(O)C(O)CCC(O)C1CCC(CCCCC(O)CC2=CC(C)OC2=O)O1 (centres undefined) | – | 27.6 µM | 23.7 µM | 46.2 µM | – | 6.65 µM | 2.86 µM | 40.1 µM | 36.5 µM | > 100 µM | 14.4 µM | 4.36 µM and 29.7 µM | > 100 µM | > 100 µM | – | – | 12.4 µM | – | – | –
CCC(C)(C)NS(=O)(=O)c1ccccc1 | – | > 100 µM | – | > 100 µM | – | > 100 µM | – | > 100 µM | – | > 100 µM | – | – | – | > 100 µM | – | > 100 µM | – | > 100 µM | – | > 100 µM
CC(=O)Oc1cc(Cl)c(OC(C)=O)c2c(OC(C)=O)c(C)c(O[Si](C)(C)C(C)(C)C)cc12 | – | 18.2 µM | – | – | – | 7.56 µM | – | 17.1 µM | – | 8.85 µM | – | 32.5 µM | – | 27.7 µM | – | – | – | – | – | 12.5 µM
CC(C)=CCc1c(O)c(C(=O)CC(C)C)c(O)c2c(-c3ccccc3)cc(=O)oc12 | 3.05 µM | > 50 µM | – | – | 8.98 µM | > 50 µM | 6.84 µM | > 50 µM | 14.5 µM | > 50 µM | 9.75 µM | 19 µM | 5.82 µM | 22.5 µM | 2.2 µM | 13.5 µM | 5.85 µM | > 50 µM | 9.7 µM | > 50 µM
CC(CCC(=O)O)c1ccc(Br)cc1 (centres undefined) | – | > 100 µM | – | > 100 µM | – | > 100 µM | – | > 100 µM | – | > 100 µM | – | > 100 µM | – | – | – | > 100 µM | – | > 100 µM | – | > 100 µM
NC(Cc1c[nH]c2cc(F)ccc12)C(=O)O (centres undefined) | 912 µM | > 2500 µM | 1090 µM | > 2500 µM | 961 µM | > 2500 µM | 1010 µM | > 2500 µM | 1480 µM | > 2500 µM | 1120 µM | > 2500 µM | 890 µM | > 2500 µM | 1700 µM | > 2500 µM | 1640 µM | > 2500 µM | – | –
COc1c(Cl)[c]([Hg][O]C(C)=O)c(NCC(C)=O)c(OC)[c]1[Hg][O]C(C)=O | 11.8 µM | > 100 µM | 38.7 µM | 90.9 µM | 13.6 µM | 32.4 µM | 11.2 µM | 28.8 µM | 19.6 µM | 62.4 µM | 22 µM | 54.5 µM | 2.92 µM | 13.3 µM | – | – | 17.8 µM | 34.5 µM | 15.6 µM | 31.6 µM
